Test results from patent publication US20190201419A1, “COMPOUND AND METHOD FOR THE TREATMENT AND DIAGNOSIS OF NEURODEGENERATIVE CONDITIONS” (Swansea University, priority 2013, published 2019).
Each block holds one molecule with its values, some of them ahead of it.

Key:
Lxrβ = target: T1, Lxrβ (Homo sapiens, UniProt P55055); experiment: Lxrβ luciferase reporter assay in SN4741 neural cells; type: cell-based, mouse; details: SN4741 cells, 10 μM, 24 h
T1 construct: expressed in transfected cells; host or cells: SN4741 mouse neuronal cell line
T1 sequence (P55055 1-460): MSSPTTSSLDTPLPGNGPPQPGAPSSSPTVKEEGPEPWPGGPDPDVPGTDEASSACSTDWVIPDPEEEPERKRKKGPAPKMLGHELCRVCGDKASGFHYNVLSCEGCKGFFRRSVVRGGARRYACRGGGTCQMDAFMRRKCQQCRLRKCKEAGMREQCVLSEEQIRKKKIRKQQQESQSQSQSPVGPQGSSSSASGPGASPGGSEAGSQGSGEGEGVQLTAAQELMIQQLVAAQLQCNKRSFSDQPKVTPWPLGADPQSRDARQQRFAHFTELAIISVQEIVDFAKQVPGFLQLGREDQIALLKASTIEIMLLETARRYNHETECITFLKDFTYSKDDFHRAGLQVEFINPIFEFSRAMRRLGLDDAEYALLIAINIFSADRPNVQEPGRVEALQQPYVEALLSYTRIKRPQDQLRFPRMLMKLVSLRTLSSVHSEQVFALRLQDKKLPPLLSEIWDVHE
Source text: (§1) Luciferase Reporter Assay.

Lxrα = target: T2, Lxrα (Homo sapiens, UniProt Q13133); experiment: Lxrα luciferase reporter assay in SN4741 neural cells; type: cell-based, mouse; details: for Lxrα activation, luciferase activity (fold activation): 10 μM, 24 h
T2 construct: expressed in transfected cells; host or cells: SN4741 mouse neuronal cell line
T2 sequence (Q13133 1-447): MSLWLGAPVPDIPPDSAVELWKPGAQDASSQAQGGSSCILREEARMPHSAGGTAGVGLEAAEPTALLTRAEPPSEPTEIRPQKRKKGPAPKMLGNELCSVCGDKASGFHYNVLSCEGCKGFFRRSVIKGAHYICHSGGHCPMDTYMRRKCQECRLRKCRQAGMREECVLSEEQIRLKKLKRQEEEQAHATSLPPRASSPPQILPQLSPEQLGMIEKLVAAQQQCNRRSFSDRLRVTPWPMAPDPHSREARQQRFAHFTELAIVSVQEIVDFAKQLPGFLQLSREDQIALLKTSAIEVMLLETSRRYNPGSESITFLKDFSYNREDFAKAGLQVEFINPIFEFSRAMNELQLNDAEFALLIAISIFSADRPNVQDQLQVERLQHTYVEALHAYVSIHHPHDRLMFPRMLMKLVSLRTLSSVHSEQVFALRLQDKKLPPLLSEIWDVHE
Source text: as §1

Islet-1 = Islet-1 expression in Tg[Isl1:GFP] zebrafish embryos; type: in vivo; details: 10 μM, embryos 48 hpf
Procedure: Quantitative PCR, Total RNA was extracted from SN4741. cells and zebrafish treated with the compounds of interest using the RNeasy Mini Kit (Qiagen), 1 μg was treated with RQ1 RNase-free DNase (Promega) and reverse transcribed using SuperScript II Reverse Transcriptase (invitrogen) and random primers (invitrogen) (RT+reaction). Parallel reactions without reverse transcriptase enzyme were done as a control (RT−reaction), and Sybergreen real-time quantitative PCR assays were performed. Expression levels were obtained by normalization with the Value of the housekeeping gene encoding actin obtained for every sample in parallel assays.
(§2) Zebrafish Strain and Maintenance Zebrafish were raised on a 14/10 h day/night cycle and were kept at 28.5 ° C. Islet-1:GFP transgenic embryos were obtained via natural spawning and staged in hours or days post fertilization (hpf and dpt) according to Kimmel et al). Embryos older than 24 hpf were treated with 0.03% phenylthiourea (PTU) to inhibit pigmentation. MO injections were performed using splice site specific zebrafish lxi MO MO injected embryos were immediately dechorionated and transferred to a 96 well plate and exposed to dimethyl sulfoxide (DMSO) treated or ligand treated medium. Compound Exposure. Islet-1:GFP embryos were collected by natural mating and immediately (at 1 cell stage) dechorionated and transferred to a 96 well plate. Each of the compounds tested were obtained as 10 mM stock and diluted in embryo medium to a final concentration of 10 μM, and 200 μL was added to each well. DMSO or propan-2-ol treated embryo medium was taken as control. Ligand solutions were replaced every 12 h with fresh ligand solution prepared in PTU treated embryo medium. Embryos were collected at 48 hpf, fixed for 4 h at room temperature with 4% paraformaldehyde and then washed and kept in PBST. Immunocytochemistry was performed using an anti-GFP antibody and fluorescence was viewed and photographed using a Zeiss Axioplan compound microscope and a Zeiss Axiocam digital camera.

zebrafish embryos = experiment: Survival of transgenic zebrafish embryos on compound exposure; type: in vivo
Procedure: as §2

[1] = test system: Islet1+ oculomotor neurons; experiment: Islet1+ cells in mouse E11.5 brain primary cultures; type: cell-based; details: wild type cultures
Procedure: Primary Brain Cultures. Brains from E11.5 mice were manually dissected, plated on poly-D-lysine (150,000 cells/cm^2) and grown in serum-free N2 media consisting of 1:1 mixture of F12 and DMEM with 10 ng/mL insulin, 100 μg/mL apo-transferrin, 100 μM putrescine, 20 nM progesterone, 30 nM selenium, 6 mg/mL glucose, and 1 mg/mL BSA. Cells were treated for 3 days in vitro (DIV) with the compounds of interest, fixed with 4% PFA and processed for staining using appropriate antibodies.
Antibodies and Detection Procedures. Cells were fixed in 4% PFA, washed in PBS and blocked in 5% normal goat serum/PBS for 1 h at room temperature. Primary antibodies were diluted in PBS (pH 7.4), 0.3% Triton X-100, 1% BSA and incubations were carried out overnight at +4° C. or at room temperature for 2 h. The antibodies used were anti-:BrdU (1:400; Abeam), Islet-1 (1:100: Developmental Studies Hybridoma Bank), cleaved caspase-3 (Aspt 75) (1:100; Cell Signaling Technology), tyrosine hydroxylase (TH; 1:1000; Pel-Freeze) GABA (1:1,000; Sigma), Bm3a (1:250; Millipore), Nkx6.1 (1:200; Novus Biologicals), choline acetyltransferase (ChAT; 1:500; Millipore) and appropriate secondary antibodies (Jackson ImmunoResearch or Alexa). Cells positive for the corresponding marker were counted directly at the microscope at a magnification of 20×. Cells were counted in every well, in eight consecutive fields (going from one side of the well to the other, passing through the center), in three different wells per experiment and in three different experiments per condition. Random pictures of the wells were taken for every condition to document the result, and representative pictures were subsequently selected to represent the quantitative data. Photos were acquired with a Zeiss Axioplan microscope and a Hamamatsu camera C4742-95 using the Openlab software.

Compound: CC(CO)CCC[C@@H](C)[C@H]1CC[C@H]2[C@@H]3[C@H](O)C=C4C[C@@H](O)CC[C@]4(C)[C@H]3CC[C@]12C (stereo partly drawn) [7α,26-diHC, 7α,26-dihydroxycholesterol]
Lxrβ activation, luciferase activity (fold activation) (Lxrβ): none of which was found to show significant activity | Lxrα activation, luciferase activity (fold activation) (Lxrα): none of which was found to show significant activity

Compound: CC(CCC[C@@H](C)[C@H]1CC[C@H]2[C@@H]3[C@H](O)CC4=CC(=O)CC[C@]4(C)[C@H]3CC[C@]12C)C(=O)O (stereo partly drawn) [7αH,3O-CA, 7α-hydroxy-3-oxocholest-4-en-26-oic acid]
Lxrβ activation, luciferase activity (fold activation) (Lxrβ): none of which was found to show significant activity | Islet-GFP expression (Islet-1): failed to regulate Islet-GFP expression | Lxrα activation, luciferase activity (fold activation) (Lxrα): none of which was found to show significant activity

Compound: CC(C)CCC[C@@H](C)[C@H]1CC[C@H]2[C@@H]3C=CC4=CC(=O)CC[C@]4(C)[C@H]3CC[C@]12C [cholesta-4,6-dien-3-one]
Lxrα activation, luciferase activity (fold activation) (Lxrα): None of these compounds showed significant activity

Compound: CC(C)CCC[C@@H](C)[C@H]1CC[C@H]2[C@@H]3[C@H](O)CC4=CC(=O)CC[C@]4(C)[C@H]3C[C@H](O)[C@]12C [7α,12α-diHCO, 7α,12α-Dihydroxycholest-4-en-3-one]
Lxrα activation, luciferase activity (fold activation) (Lxrα): None of these compounds showed significant activity

Lxrβ activation, luciferase activity (fold activation) (Lxrβ): activate Lxr | Lxrα activation, luciferase activity (fold activation) (Lxrα): activate Lxr
Compound: CC(C)[C@@H](O)CC[C@@H](C)[C@H]1CC[C@H]2[C@@H]3CC=C4C[C@@H](O)CC[C@]4(C)[C@H]3CC[C@]12C [24S-HC, cholest-5-ene-3β,24S-diol]

Compound: CC(C)CCC[C@@H](C)[C@H]1CC[C@H]2[C@@H]3CC[C@H]4C[C@@H](O)CC[C@]4(C)[C@H]3CC[C@]12C [5α-cholestan-3β-ol]
Lxrα activation, luciferase activity (fold activation) (Lxrα): None of these compounds showed significant activity

Compound: CC(C)CCC[C@@H](C)[C@H]1CC[C@H]2[C@@H]3CC[C@H]4CC(=O)CC[C@]4(C)[C@H]3CC[C@]12C [5α-cholestan-3-one]
Lxrα activation, luciferase activity (fold activation) (Lxrα): None of these compounds showed significant activity

Compound: C[C@H](CCC(=O)O)[C@H]1CC[C@H]2[C@@H]3[C@H](O)C[C@@H]4C[C@H](O)CC[C@]4(C)[C@H]3CC[C@]12C [CDCA, chenodeoxycholic acid, reference compound]
Toxic effect on survival of the fish (zebrafish embryos): had a deleterious toxic effect which impaired the survival of the fish

Compound: CC(CO)CCC[C@@H](C)[C@H]1CC[C@H]2[C@@H]3[C@H](O)CC4=CC(=O)CC[C@]4(C)[C@H]3CC[C@]12C (stereo partly drawn) [7α,26-diHCO, 7α,26-dihydroxycholest-4-en-3-one]
Lxrβ activation, luciferase activity (fold activation) (Lxrβ): none of which was found to show significant activity | Lxrα activation, luciferase activity (fold activation) (Lxrα): none of which was found to show significant activity

Compound: CC(C)CCC[C@@H](C)[C@H]1CC[C@H]2[C@@H]3[C@H](O)CC4=CC(=O)CC[C@]4(C)[C@H]3CC[C@]12C [7α-HCO, 7α-Hydroxycholest-4-en-3-one]
Lxrα activation, luciferase activity (fold activation) (Lxrα): None of these compounds showed significant activity

Compound: CC(CCC[C@@H](C)[C@H]1CC[C@H]2[C@@H]3[C@@H](O)CC4=CC(=O)CC[C@]4(C)[C@H]3CC[C@]12C)C(=O)O (stereo partly drawn) [7βH,3O-CA, 7β-hydroxy-3-oxocholest-4-en-26-oic acid]
Lxrβ activation, luciferase activity (fold activation) (Lxrβ): none of which was found to show significant activity | Lxrα activation, luciferase activity (fold activation) (Lxrα): none of which was found to show significant activity

Compound: C[C@@H](CO)CCC[C@@H](C)[C@H]1CC[C@H]2[C@@H]3CC=C4C[C@@H](O)CC[C@]4(C)[C@H]3CC[C@]12C [26-HC, cholest-(25R)-5-en-3β,26-diol]
Lxrβ activation, luciferase activity (fold activation) (Lxrβ): had no a significant effect | Lxrα activation, luciferase activity (fold activation) (Lxrα): had no a significant effect | Number of Islet1+ cells [1]: no effect on the number of Islet1+ cells

Compound: CC(C)CC[C@@H](O)[C@@H](C)[C@H]1CC[C@H]2[C@@H]3CC=C4C[C@@H](O)CC[C@]4(C)[C@H]3CC[C@]12C [22R-HC, 22R-hydroxycholesterol, reference compound]
Lxr luciferase activity with addition of the Lxr antagonist GGPP (Lxrα; 10 μM metabolite + 10 μM GGPP): similarly blocked | Number of Islet1+ cells [1]: does not show an effect towards Islet1+ cells

Compound: CC(C)CCC[C@@H](C)[C@H]1CC[C@H]2[C@@H]3CCC4=CC(=O)CC[C@]4(C)[C@H]3CC[C@]12C [cholest-4-en-3-one]
Lxrα activation, luciferase activity (fold activation) (Lxrα): None of these compounds showed significant activity
